Patent US9802891B2, “Crystal forms of azetidinone compounds and preparing methods thereof” (Zhejiang Hisun Pharmaceutical Co., Ltd., priority 2012, dated 2017)

Assays:
Long term stability test = assay type: physicochemical; details: 25° C.±2° C., relative humidity 60%±10%; for Content of C25H21F2NO3, based on anhydride: shall be no less than 97.0%; for Relevant substances: Single maximum unknown foreign matter: shall not exceed 0.3%; for Relevant substances: Total foreign matter: shall not exceed 1.5%; for Moisture: shall not exceed 2.0%
Description: In accordance with the stability test guiding principles (Chinese Pharmacopoeia 2010 Edition 2—Annex XIX C), prepare the samples of the crystal form I of the compound of formula A described in embodiment 6 in a commercial package, place the samples in a thermotank at the temperature of 25° C.±2° C. with the relative humidity of 60%±10%, take each sample from the samples once at the ends of the third month, the sixth month and the ninth month respectively to detect the key stability inspection items of each sample and compare with the result of the sample at the zero day, wherein see Table 3 for the comparisons.

[1] = Accelerated stability test; assay type: physicochemical; details: 40° C.±2° C., relative humidity 75%±5%; for Melting point / Content of C25H21F2NO3, based on anhydride / Relevant substances: Single maximum unknown foreign matter / Relevant substances: Total foreign matter / Moisture / Relevant substances: Diastereomer: commercial package; for Melting point: limit 149-153° C.; for Content of C25H21F2NO3, based on anhydride: shall be no less than 97.0%; for Relevant substances: Single maximum unknown foreign matter: shall not exceed 0.3%; for Relevant substances: Total foreign matter: shall not exceed 1.5%; for Moisture: shall not exceed 2.0%; for Relevant substances: Diastereomer: shall not exceed 1.0%
Description: In accordance with the stability test guiding principles (Chinese Pharmacopoeia 2010 Edition 2—Annex XIX C), prepare the sample of the crystal form I of the compound of formula A described in embodiment 6 in a commercial package, place the samples in a thermotank at the temperature of 40° C.±2° C. with the relative humidity of 75%±5%, with the duration of 6 months, take each sample once at the ends of the first month, the second month, the third month and the sixth month respectively to detect the key stability inspection items and compare with the results of the sample at the zero day, wherein see Table 4 for the comparisons.

[2] = commercial package, month 9, shall not exceed 0.5%

Structure (SMILES): O=C1[C@H](C/C=C(\CO)c2ccc(F)cc2)[C@@H](c2ccc(O)cc2)N1c1ccc(F)cc1 [crystal form I, (3R,4S)-4-(4-hydroxyphenyl)-3-[3-(4-fluorophenyl)-4-hydroxybut-2(Z)-enyl]-1-(4-fluorophenyl)-2-azetidinone]
- Content of C25H21F2NO3, based on anhydride (Long term stability test; commercial package, month 0): 98.74%
- Relevant substances: Single maximum unknown foreign matter (Long term stability test; commercial package, month 0): 0.097%
- Relevant substances: Total foreign matter (Long term stability test; commercial package, month 0): 0.342%
- Moisture (Long term stability test; commercial package, month 0): 0.23%
- Content of C25H21F2NO3, based on anhydride (Long term stability test; commercial package, month 3): 98.99%
- Relevant substances: Single maximum unknown foreign matter (Long term stability test; commercial package, month 3): 0.1013%
- Relevant substances: Total foreign matter (Long term stability test; commercial package, month 3): 0.3488%
- Moisture (Long term stability test; commercial package, month 3): 0.41%
- Content of C25H21F2NO3, based on anhydride (Long term stability test; commercial package, month 6): 98.83%
- Relevant substances: Single maximum unknown foreign matter (Long term stability test; commercial package, month 6): 0.0956%
- Relevant substances: Total foreign matter (Long term stability test; commercial package, month 6): 0.3551%
- Moisture (Long term stability test; commercial package, month 6): 0.56%
- Content of C25H21F2NO3, based on anhydride (Long term stability test; commercial package, month 9): 98.91%
- Relevant substances: Single maximum unknown foreign matter (Long term stability test; commercial package, month 9): 0.0940%
- Isomer: E-isomer (Long term stability test; [2]): 0.0161%
- Isomer: Enantiomer (Long term stability test; [2]): 0.0587%
- Relevant substances: Total foreign matter (Long term stability test; commercial package, month 9): 0.3581%
- Moisture (Long term stability test; commercial package, month 9): 0.32%
- Long term stability, conclusion on inspection indexes (Long term stability test; nine month): various inspection indexes of the samples do not change apparently and all meet the specifications
- Melting point ([1]; month 0): 149.8-152.1 °C
- Content of C25H21F2NO3, based on anhydride ([1]; month 0): 98.71%
- Relevant substances: Single maximum unknown foreign matter ([1]; month 0): 0.097%
- Relevant substances: Total foreign matter ([1]; month 0): 0.342%
- Moisture ([1]; month 0): 0.20%
- Melting point ([1]; month 1): 149.3-151.5 °C
- Content of C25H21F2NO3, based on anhydride ([1]; month 1): 99.11%
- Relevant substances: Single maximum unknown foreign matter ([1]; month 1): 0.1004%
- Relevant substances: Diastereomer ([1]; month 1): 0.0128%
- Relevant substances: Total foreign matter ([1]; month 1): 0.3757%
- Moisture ([1]; month 1): 0.30%
- Melting point ([1]; month 2): 149.7-152.1 °C
- Content of C25H21F2NO3, based on anhydride ([1]; month 2): 98.82%
- Relevant substances: Single maximum unknown foreign matter ([1]; month 2): 0.0856%
- Relevant substances: Diastereomer ([1]; month 2): Not detected
- Relevant substances: Total foreign matter ([1]; month 2): 0.3650%
- Moisture ([1]; month 2): 0.28%
- Melting point ([1]; month 3): 149.7-152.1 °C
- Content of C25H21F2NO3, based on anhydride ([1]; month 3): 98.78%
- Relevant substances: Single maximum unknown foreign matter ([1]; month 3): 0.0983%
- Relevant substances: Diastereomer ([1]; month 3): Not detected
- Relevant substances: Total foreign matter ([1]; month 3): 0.3717%
- Moisture ([1]; month 3): 0.37%
- Melting point ([1]; month 6): 149.5-151.9 °C
- Content of C25H21F2NO3, based on anhydride ([1]; month 6): 97.97%
- Relevant substances: Single maximum unknown foreign matter ([1]; month 6): 0.2017%
- Relevant substances: Diastereomer ([1]; month 6): Not detected
- Relevant substances: Total foreign matter ([1]; month 6): 1.0828%
- Moisture ([1]; month 6): 0.44%
- Accelerated stability, conclusion on inspection indexes ([1]; 6 months): the relevant substances are grown significantly in the sixth month and the content is reduced at a certain level; however, both of the two are within the acceptable range
